# How the values were obtained:
# Experiment in all cases: CETSA-MS, MDA-MB-231 intact cells
# Assay type in all cases: cell-based
# Conditions in all cases: 2 μM and 20 μM
# MAP3K20 = target: T1, MAP3K20 (Homo sapiens, UniProt Q9NYL2)
# T1 construct: endogenous in cells; host or cells: MDA-MB-231
# Procedure: (§1) TNBC MDA-MB-231 cells were grown at 37° C. in 5% CO2 and suspended in warm media and split into 4 equal volumes. […] Cells were incubated and then pelleted. Following pelleting, the cells were washed, resuspended, and heated in a thermal gradient. Following heating, the samples were flash frozen and lysed in lysis buffer, agitated by vortex, and sonicated prior to centrifugation. The supernatant was collected and denaturation buffer added. Cold acetone was then added to the cell samples, and protein collected by centrifugation. Pellets were then washed twice with cold acetone and the washed pellets prior to labeling.
# (§2) The intact cell protein samples and lysate protein samples were then digested and labeled for mass spectrometry analysis according to the manufacturer's recommended protocols. Digested and labeled protein samples were analyzed by mass spectrometry proteomic analysis and the resulting protein targets were analyzed and plotted.
# STK10 = target: T2, STK10 (Homo sapiens, UniProt O94804)
# T2 construct: endogenous in cells; host or cells: MDA-MB-231
# T2 sequence (O94804 whole entry): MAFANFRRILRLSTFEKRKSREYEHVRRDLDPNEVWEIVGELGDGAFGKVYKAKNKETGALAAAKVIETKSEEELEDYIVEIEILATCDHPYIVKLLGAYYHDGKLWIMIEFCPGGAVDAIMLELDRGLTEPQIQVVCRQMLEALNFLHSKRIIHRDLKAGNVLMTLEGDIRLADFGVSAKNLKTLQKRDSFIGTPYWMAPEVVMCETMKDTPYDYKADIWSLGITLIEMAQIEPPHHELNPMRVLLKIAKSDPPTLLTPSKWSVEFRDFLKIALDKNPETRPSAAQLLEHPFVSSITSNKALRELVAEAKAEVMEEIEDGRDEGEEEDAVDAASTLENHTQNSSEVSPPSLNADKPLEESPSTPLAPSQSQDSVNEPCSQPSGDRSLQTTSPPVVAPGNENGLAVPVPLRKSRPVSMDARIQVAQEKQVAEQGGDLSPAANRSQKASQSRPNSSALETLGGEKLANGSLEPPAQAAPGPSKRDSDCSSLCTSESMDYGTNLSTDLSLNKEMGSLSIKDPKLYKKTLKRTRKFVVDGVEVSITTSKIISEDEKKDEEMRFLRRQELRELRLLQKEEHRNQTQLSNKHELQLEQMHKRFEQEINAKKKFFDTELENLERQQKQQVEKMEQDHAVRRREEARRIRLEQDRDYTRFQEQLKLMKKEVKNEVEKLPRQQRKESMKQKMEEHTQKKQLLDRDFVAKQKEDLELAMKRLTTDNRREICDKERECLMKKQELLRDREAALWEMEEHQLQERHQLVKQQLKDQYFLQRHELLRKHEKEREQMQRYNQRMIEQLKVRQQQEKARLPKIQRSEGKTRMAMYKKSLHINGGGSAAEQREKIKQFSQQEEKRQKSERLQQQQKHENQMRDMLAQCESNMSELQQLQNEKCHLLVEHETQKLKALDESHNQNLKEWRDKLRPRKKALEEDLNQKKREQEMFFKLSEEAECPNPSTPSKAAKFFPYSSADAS
# Procedure: as §1, §2
# SND1 = target: T3, SND1 (Homo sapiens, UniProt Q7KZF4)
# T3 construct: endogenous in cells; host or cells: MDA-MB-231
# Procedure: as §1, §2
# RRAS2 = target: T4, RRAS2 (Homo sapiens, UniProt P62070)
# T4 construct: endogenous in cells; host or cells: MDA-MB-231
# Procedure: as §1, §2
# RNF5 = target: T5, RNF5 (Homo sapiens, UniProt Q99942)
# T5 construct: endogenous in cells; host or cells: MDA-MB-231
# Procedure: as §1, §2
# FOXK1 = target: T6, FOXK1 (Homo sapiens, UniProt P85037)
# T6 construct: endogenous in cells; host or cells: MDA-MB-231
# Procedure: as §1, §2
# LOXL2 = target: T7, LOXL2 (Homo sapiens, UniProt Q9Y4K0)
# T7 construct: endogenous in cells; host or cells: MDA-MB-231
# Procedure: as §1, §2
# LMAN2 = target: T8, LMAN2 (Homo sapiens, UniProt Q12907)
# T8 construct: endogenous in cells; host or cells: MDA-MB-231
# Procedure: as §1, §2
# ESYT1 = target: T9, ESYT1 (Homo sapiens, UniProt Q9BSJ8)
# T9 construct: 148 targets unique to Compound 1 in MDA-MB-231 intact cells; endogenous in cells; host or cells: MDA-MB-231
# T9 sequence (Q9BSJ8 whole entry): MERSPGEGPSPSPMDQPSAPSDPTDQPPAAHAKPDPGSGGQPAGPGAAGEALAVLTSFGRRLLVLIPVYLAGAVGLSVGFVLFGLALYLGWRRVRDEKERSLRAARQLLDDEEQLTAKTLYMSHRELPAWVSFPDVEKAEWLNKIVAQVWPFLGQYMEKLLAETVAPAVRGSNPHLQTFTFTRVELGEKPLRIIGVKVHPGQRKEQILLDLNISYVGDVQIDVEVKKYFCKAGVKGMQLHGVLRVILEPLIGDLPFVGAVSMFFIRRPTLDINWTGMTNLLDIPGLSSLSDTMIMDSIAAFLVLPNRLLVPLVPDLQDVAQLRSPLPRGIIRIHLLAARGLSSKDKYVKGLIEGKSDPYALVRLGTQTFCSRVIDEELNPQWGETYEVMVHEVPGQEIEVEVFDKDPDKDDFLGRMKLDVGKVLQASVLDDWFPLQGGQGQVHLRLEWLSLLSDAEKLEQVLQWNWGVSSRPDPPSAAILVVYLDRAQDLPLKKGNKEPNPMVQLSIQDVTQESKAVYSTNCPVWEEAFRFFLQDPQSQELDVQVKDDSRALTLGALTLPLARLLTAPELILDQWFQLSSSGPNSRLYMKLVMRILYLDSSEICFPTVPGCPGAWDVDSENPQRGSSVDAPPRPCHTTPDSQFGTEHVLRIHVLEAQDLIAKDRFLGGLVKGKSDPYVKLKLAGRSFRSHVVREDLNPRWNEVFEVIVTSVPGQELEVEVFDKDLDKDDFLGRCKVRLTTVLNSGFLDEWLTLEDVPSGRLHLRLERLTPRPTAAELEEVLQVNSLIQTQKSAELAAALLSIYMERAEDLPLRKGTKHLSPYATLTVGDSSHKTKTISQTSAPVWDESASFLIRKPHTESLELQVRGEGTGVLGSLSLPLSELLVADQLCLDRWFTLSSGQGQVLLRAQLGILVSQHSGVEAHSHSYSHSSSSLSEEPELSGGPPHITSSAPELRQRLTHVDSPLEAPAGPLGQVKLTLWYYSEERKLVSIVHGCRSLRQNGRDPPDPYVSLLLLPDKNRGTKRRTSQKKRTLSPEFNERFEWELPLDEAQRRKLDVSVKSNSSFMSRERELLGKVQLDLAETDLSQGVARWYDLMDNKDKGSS
# Procedure: as §1, §2
# LEO1 = target: T10, LEO1 (Homo sapiens, UniProt Q8WVC0)
# T10 construct: endogenous in cells; host or cells: MDA-MB-231
# Procedure: as §1, §2
# TLE5 = target: T11, TLE5 (Homo sapiens, UniProt Q08117)
# T11 construct: endogenous in cells; host or cells: MDA-MB-231
# Procedure: as §1, §2
# FUBP3 = target: T12, FUBP3 (Homo sapiens, UniProt Q96I24)
# T12 construct: 148 targets unique to Compound 1 in MDA-MB-231 intact cells; endogenous in cells; host or cells: MDA-MB-231
# T12 sequence (Q96I24 whole entry): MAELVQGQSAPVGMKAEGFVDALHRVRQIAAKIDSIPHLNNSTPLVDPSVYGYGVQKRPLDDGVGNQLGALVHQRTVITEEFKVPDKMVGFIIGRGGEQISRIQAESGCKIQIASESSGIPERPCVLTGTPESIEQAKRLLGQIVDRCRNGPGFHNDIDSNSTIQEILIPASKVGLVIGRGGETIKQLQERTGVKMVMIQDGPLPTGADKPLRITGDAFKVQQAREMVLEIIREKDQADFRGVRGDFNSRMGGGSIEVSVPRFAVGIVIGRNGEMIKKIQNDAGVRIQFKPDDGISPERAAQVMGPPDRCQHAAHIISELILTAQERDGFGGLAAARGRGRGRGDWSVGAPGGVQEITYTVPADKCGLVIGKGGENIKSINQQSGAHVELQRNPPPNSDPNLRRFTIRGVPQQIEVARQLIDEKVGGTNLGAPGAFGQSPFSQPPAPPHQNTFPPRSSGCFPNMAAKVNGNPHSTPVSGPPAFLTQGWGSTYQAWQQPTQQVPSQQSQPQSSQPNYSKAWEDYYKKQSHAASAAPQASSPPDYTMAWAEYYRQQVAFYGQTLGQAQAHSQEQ
# Procedure: as §1, §2
# GSK3B = target: T13, GSK3B (Homo sapiens, UniProt P49841)
# T13 construct: endogenous in cells; host or cells: MDA-MB-231
# Procedure: as §1, §2
# NAP1L1 = target: T14, NAP1L1 (Homo sapiens, UniProt P55209)
# T14 construct: endogenous in cells; host or cells: MDA-MB-231
# Procedure: as §1, §2
# SCP2 = target: T15, SCP2 (Homo sapiens, UniProt P22307)
# T15 construct: endogenous in cells; host or cells: MDA-MB-231
# Procedure: as §1, §2
# MLEC = target: T16, MLEC (Homo sapiens, UniProt Q14165)
# T16 construct: endogenous in cells; host or cells: MDA-MB-231
# Procedure: as §1, §2
# UFL1 = target: T17, UFL1 (Homo sapiens, UniProt O94874)
# T17 construct: endogenous in cells; host or cells: MDA-MB-231
# Procedure: as §1, §2
# CELF1 = target: T18, CELF1 (Homo sapiens, UniProt Q92879)
# T18 construct: endogenous in cells; host or cells: MDA-MB-231
# Procedure: as §1, §2
# CLPP = target: T19, CLPP (Homo sapiens, UniProt Q16740)
# T19 construct: endogenous in cells; host or cells: MDA-MB-231
# Procedure: as §1, §2
# ARRB2 = target: T20, ARRB2 (Homo sapiens, UniProt P32121)
# T20 construct: endogenous in cells; host or cells: MDA-MB-231
# Procedure: as §1, §2
# GCAT = target: T21, GCAT (Homo sapiens, UniProt O75600)
# T21 construct: 148 targets unique to Compound 1 in MDA-MB-231 intact cells; endogenous in cells; host or cells: MDA-MB-231
# T21 sequence (O75600 22-419): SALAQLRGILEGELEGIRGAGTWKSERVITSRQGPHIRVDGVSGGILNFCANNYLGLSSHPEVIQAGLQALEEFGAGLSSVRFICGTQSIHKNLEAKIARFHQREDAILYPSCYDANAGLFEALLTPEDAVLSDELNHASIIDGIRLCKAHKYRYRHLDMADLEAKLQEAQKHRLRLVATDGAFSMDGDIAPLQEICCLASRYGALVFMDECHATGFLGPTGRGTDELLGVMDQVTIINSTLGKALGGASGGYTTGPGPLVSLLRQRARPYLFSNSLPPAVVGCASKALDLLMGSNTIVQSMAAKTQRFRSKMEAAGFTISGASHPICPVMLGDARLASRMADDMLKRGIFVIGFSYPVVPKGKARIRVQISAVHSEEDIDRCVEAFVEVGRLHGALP
# Procedure: as §1, §2
# LAMTOR2 = target: T22, LAMTOR2 (Homo sapiens, UniProt Q9Y2Q5)
# T22 construct: endogenous in cells; host or cells: MDA-MB-231
# Procedure: as §1, §2
# LYN = target: T23, LYN (Homo sapiens, UniProt P07948)
# T23 construct: endogenous in cells; host or cells: MDA-MB-231
# Procedure: as §1, §2
# JMY = target: T24, JMY (Homo sapiens, UniProt Q8N9B5)
# T24 construct: endogenous in cells; host or cells: MDA-MB-231
# Procedure: as §1, §2
# AXL = target: T25, AXL (Homo sapiens, UniProt P30530)
# T25 construct: endogenous in cells; host or cells: MDA-MB-231
# Procedure: as §1, §2
# HNRNPU = test system: HNRNPU
# Procedure: as §1, §2
# LRRC59 = target: T26, LRRC59 (Homo sapiens, UniProt Q96AG4)
# T26 construct: endogenous in cells; host or cells: MDA-MB-231
# Procedure: as §1, §2
# SHCBP1 = target: T27, SHCBP1 (Homo sapiens, UniProt Q8NEM2)
# T27 construct: endogenous in cells; host or cells: MDA-MB-231
# T27 sequence (Q8NEM2 whole entry): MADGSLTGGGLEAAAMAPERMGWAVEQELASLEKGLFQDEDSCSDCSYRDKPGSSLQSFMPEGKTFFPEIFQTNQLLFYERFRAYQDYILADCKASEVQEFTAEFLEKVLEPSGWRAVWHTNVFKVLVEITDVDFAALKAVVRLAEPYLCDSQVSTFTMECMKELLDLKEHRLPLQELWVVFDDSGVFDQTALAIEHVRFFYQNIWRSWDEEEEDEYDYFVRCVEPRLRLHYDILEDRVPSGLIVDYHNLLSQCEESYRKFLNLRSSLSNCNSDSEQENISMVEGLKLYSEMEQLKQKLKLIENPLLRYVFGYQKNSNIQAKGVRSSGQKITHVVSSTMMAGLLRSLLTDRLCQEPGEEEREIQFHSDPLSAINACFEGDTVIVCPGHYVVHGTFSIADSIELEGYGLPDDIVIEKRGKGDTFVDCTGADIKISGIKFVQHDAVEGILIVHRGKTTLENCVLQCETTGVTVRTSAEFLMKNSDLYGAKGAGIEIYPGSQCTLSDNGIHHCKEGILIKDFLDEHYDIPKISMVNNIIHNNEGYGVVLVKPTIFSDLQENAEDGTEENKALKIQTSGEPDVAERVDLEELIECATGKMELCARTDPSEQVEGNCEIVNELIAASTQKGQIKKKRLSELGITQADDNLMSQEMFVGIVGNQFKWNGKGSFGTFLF
# Procedure: as §1, §2
# DBNDD2 = target: T28, DBNDD2 (Homo sapiens, UniProt Q9BQY9)
# T28 construct: 148 targets unique to Compound 1 in MDA-MB-231 intact cells; endogenous in cells; host or cells: MDA-MB-231
# T28 sequence (Q9BQY9 whole entry): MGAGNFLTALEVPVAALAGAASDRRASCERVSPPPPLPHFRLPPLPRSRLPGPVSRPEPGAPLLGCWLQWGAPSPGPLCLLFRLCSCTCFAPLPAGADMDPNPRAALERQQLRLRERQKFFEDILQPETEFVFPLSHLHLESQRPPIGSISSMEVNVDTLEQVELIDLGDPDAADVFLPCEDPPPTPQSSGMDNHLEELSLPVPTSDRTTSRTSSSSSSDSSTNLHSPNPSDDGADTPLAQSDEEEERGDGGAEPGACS
# Procedure: as §1, §2
# SMU1 = target: T29, SMU1 (Homo sapiens, UniProt Q2TAY7)
# T29 construct: endogenous in cells; host or cells: MDA-MB-231
# Procedure: as §1, §2
# PHF8 = target: T30, PHF8 (Homo sapiens, UniProt Q9UPP1)
# T30 construct: endogenous in cells; host or cells: MDA-MB-231
# T30 sequence (Q9UPP1 whole entry): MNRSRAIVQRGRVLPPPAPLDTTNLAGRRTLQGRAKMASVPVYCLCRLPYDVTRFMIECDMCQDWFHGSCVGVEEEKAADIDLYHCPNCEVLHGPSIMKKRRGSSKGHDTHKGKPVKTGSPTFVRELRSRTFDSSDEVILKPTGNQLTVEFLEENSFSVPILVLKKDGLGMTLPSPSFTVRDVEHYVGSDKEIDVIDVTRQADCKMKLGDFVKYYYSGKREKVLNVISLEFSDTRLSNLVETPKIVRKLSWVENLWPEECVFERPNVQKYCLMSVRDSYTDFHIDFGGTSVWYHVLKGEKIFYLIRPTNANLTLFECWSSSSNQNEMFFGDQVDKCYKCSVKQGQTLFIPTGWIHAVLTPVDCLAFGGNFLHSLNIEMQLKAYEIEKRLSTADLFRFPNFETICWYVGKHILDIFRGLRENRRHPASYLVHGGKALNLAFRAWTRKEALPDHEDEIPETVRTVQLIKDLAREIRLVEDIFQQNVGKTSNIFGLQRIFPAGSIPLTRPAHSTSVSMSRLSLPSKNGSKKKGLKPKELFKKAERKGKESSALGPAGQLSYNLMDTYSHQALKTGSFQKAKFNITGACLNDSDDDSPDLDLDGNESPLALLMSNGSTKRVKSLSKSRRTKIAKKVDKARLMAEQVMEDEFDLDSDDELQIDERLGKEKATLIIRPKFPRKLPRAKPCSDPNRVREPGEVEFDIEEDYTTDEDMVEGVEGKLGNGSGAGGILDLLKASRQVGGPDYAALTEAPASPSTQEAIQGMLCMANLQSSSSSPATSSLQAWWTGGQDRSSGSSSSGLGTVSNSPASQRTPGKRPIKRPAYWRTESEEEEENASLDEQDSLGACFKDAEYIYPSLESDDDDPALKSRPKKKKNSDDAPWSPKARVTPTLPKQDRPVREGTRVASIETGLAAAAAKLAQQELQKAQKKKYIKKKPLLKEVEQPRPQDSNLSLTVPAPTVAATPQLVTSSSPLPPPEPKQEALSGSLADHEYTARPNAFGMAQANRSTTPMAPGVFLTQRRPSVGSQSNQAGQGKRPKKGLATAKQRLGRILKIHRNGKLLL
# Procedure: as §1, §2
# RSF1 = target: T31, RSF1 (Homo sapiens, UniProt Q96T23)
# T31 construct: endogenous in cells; host or cells: MDA-MB-231
# Procedure: as §1, §2
# AP2S1 = target: T32, AP2S1 (Homo sapiens, UniProt P53680)
# T32 construct: endogenous in cells; host or cells: MDA-MB-231
# Procedure: as §1, §2
# MAP2K5 = target: T33, MAP2K5 (Homo sapiens, UniProt Q13163)
# T33 construct: endogenous in cells; host or cells: MDA-MB-231
# Procedure: as §1, §2
# HNRNPA1 = target: T34, HNRNPA1 (Homo sapiens, UniProt P09651)
# T34 construct: 148 targets unique to Compound 1 in MDA-MB-231 intact cells; endogenous in cells; host or cells: MDA-MB-231
# Procedure: as §1, §2
# CRAT = target: T35, CRAT (Homo sapiens, UniProt P43155)
# T35 construct: 148 targets unique to Compound 1 in MDA-MB-231 intact cells; endogenous in cells; host or cells: MDA-MB-231
# Procedure: as §1, §2
smiles,measurement,setting,value
"CN1CCN(c2ccc(Nc3ncc4cc(C#N)c(=O)n(C5CCCC5)c4n3)cc2)CC1 [Compound 1, 8-cyclopentyl-2-((4-(4-methylpiperazin-1-yl)phenyl)amino)-7-oxo-7,8-dihydropyrido[2,3-d]pyrimidine-6-carbonitrile]",Group (CETSA-MS thermal shift),MAP3K20,Destabilization
same,Group (CETSA-MS thermal shift),STK10,Stabilization
same,Group (CETSA-MS thermal shift),SND1,Stabilization
same,Group (CETSA-MS thermal shift),RRAS2,Stabilization
same,Group (CETSA-MS thermal shift),RNF5,Stabilization
same,Group (CETSA-MS thermal shift),FOXK1,Destabilization
same,Group (CETSA-MS thermal shift),LOXL2,Stabilization
same,Group (CETSA-MS thermal shift),LMAN2,Stabilization
same,Group (CETSA-MS thermal shift),ESYT1,Stabilization
same,Group (CETSA-MS thermal shift),LEO1,Stabilization
same,Group (CETSA-MS thermal shift),TLE5,Destabilization
same,Group (CETSA-MS thermal shift),FUBP3,Stabilization
same,Group (CETSA-MS thermal shift),GSK3B,Stabilization
same,Group (CETSA-MS thermal shift),NAP1L1,Stabilization
same,Group (CETSA-MS thermal shift),SCP2,Destabilization
same,Group (CETSA-MS thermal shift),MLEC,Stabilization
same,Group (CETSA-MS thermal shift),UFL1,Stabilization
same,Group (CETSA-MS thermal shift),CELF1,Stabilization
same,Group (CETSA-MS thermal shift),CLPP,Stabilization
same,Group (CETSA-MS thermal shift),ARRB2,Stabilization
same,Group (CETSA-MS thermal shift),GCAT,Stabilization
same,Group (CETSA-MS thermal shift),LAMTOR2,Stabilization
same,Group (CETSA-MS thermal shift),LYN,Destabilization
same,Group (CETSA-MS thermal shift),JMY,Stabilization
same,Group (CETSA-MS thermal shift),AXL,Stabilization
same,Group (CETSA-MS thermal shift),HNRNPU,Stabilization
same,Group (CETSA-MS thermal shift),LRRC59,Stabilization
same,Group (CETSA-MS thermal shift),SHCBP1,Destabilization
same,Group (CETSA-MS thermal shift),DBNDD2,Stabilization
same,Group (CETSA-MS thermal shift),SMU1,Stabilization
same,Group (CETSA-MS thermal shift),PHF8,Stabilization
same,Group (CETSA-MS thermal shift),RSF1,Stabilization
same,Group (CETSA-MS thermal shift),AP2S1,Destabilization
same,Group (CETSA-MS thermal shift),MAP2K5,Destabilization
same,Group (CETSA-MS thermal shift),HNRNPA1,Stabilization
same,Group (CETSA-MS thermal shift),CRAT,Stabilization
